Assay results: US5481013A, “Carboxylic acid derivatives” (Ciba-Geigy Corporation, priority 1992, dated 1996)

How the values were obtained:
Type in all cases: in vivo
Nilaparvata lugens [1] = assay: Activity against Nilaparvata lugens (spray on rice plants); settings: 504 h, 400 ppm spray on rice plants, larvae in stages 2 and 3, evaluated after 21 days, read-out: percentage reduction in population (% activity)
Description: Rice plants are treated with a spray mixture prepared with an aqueous emulsion and comprising 400 ppm of the active ingredient. After the spray coating has dried on, the rice plants are populated with plant hopper larvae in stages 2 and 3. The test is evaluated after 21 days. The percentage reduction in population (% activity) is determined by comparing the number of surviving plant hoppers on the treated plants with the number of plant hoppers on the untreated plants. […] An activity of over 80% is shown, in particular, by compound Nos. 1.01, 2.01 to 2.03, 2.07, 2.08, 2.10 to 2.16, 2.20, 2.22, 2.23, 2.26, 3.01, 4.01 to 4.06, 4.20, 5.01 to 5.06, 5.08, 5.10 to 5.12, 5.15, 5.16 and 5.20 to 5.25.

Ctenocephalides felis = assay: Activity against Ctenocephalides felis; settings: 504 h, 100 ppm in flea larvae nutrient medium, flea eggs, checked after 21 days
Description: 20 to 25 flea eggs are placed into a horizontally positioned 50 ml tissue culture flask into which 15 g of flea larvae nutrient medium comprising 100 ppm of the active ingredient to be tested have previously been introduced. The test flasks are incubated in an incubator at 26° to 27° C. and an atmospheric humidity of 60-70%. After 21 days, the flasks are checked for the presence of adult fleas, unhatched pupae and larvae.

Aphis craccivora = assay: Activity against Aphis craccivora; settings: 400 ppm spray on pea seedlings, 20° C., evaluated after 3 and 6 days, read-out: percentage reduction in population (% activity)
Description: Pea seedlings are infected with Aphis craccivora, subsequently sprayed with a spray mixture comprising 400 ppm of the active ingredient, and incubated at 20° C. The test is evaluated after 3 and 6 days. The percentage reduction in population (% activity) is determined by comparing the number of dead aphids on the treated plants with those on the untreated plants.

Nilaparvata lugens [2] = assay: Systemic activity against Nilaparvata lugens; settings: 144 h, pots with rice plants in 400 ppm aqueous emulsion solution, larvae in stages 2 and 3, evaluated 6 days later, read-out: percentage reduction in population (% activity)
Description: (§1) Pots containing rice plants are placed into an aqueous emulsion solution comprising 400 ppm of the active ingredient. The rice plants are subsequently populated with larvae in stages 2 and 3. The test is evaluated 6 days later. The percentage reduction in population (% activity) is determined by comparing the numbers of plant hoppers on the treated plants with those on the untreated plants.

[3] = tested on: Panonychus ulmi (OP- and carb.- resistant); assay: Activity against Panonychus ulmi (OP- and carb.- resistant); settings: 336 h, 400 ppm spray on apple seedlings, evaluated after 14 days, read-out: percentage reduction in population (% activity)
Description: Apple seedlings are populated with adult females of Panonychus ulmi. After seven days, the infested plants are sprayed to drip point with an aqueous emulsion comprising 400 ppm of the test compound and grown in the greenhouse. The test is evaluated after 14 days. The percentage reduction in population (% activity) is determined by comparing the number of dead spider mites on the treated plants with those on the untreated plants. […] An activity of over 80% is shown, in particular, by compound Nos. 1.01, 2.01, 2.07, 2.08, 2.10, 2.12 to 2.16, 2.22, 2.23, 2.26, 3.01, 4.01, 4.02, 4.06, 5.01 to 5.03, 5.05, 5.06, 5.08, 5.10, 5.11, 5.15, 5.16 and 5.20 to 5.25.

Bemisia tabaci = assay: Activity against Bemisia tabaci; settings: 336 h, 400 ppm spray on dwarf bean plants with nymphs, evaluated 14 days after application, read-out: activity (hatching percentages vs untreated control)
Description: Dwarf bean plants are placed into gauze cages and populated with adult Bemisia tabaci specimens (white fly). After oviposition has taken place, all adults are removed and, 10 days later, the plants with the nymphs located thereon are treated with a spray mixture of the active ingredients to be tested (concentration 400 ppm), which has been prepared with an aqueous emulsion. The test is evaluated for hatching percentages 14 days after the active ingredient has been applied by comparison with the untreated control batches. […] An activity of over 80% is shown, in particular, by compound Nos. 1.01, 2.01 to 2.08, 2.10 to 2.16, 2.22, 2.23, 3.01, 4.01, 4.02, 4.05, 4.06, 5.02, 5.03, 5.06 to 5.08, 5.10, 5.11, 5.20, 5.21 and 6.09.

Tetranychus urticae = assay: Activity against Tetranychus urticae; settings: 144 h, 400 ppm spray on young bean plants, mixed population, 6 days at 25° C, read-out: percentage reduction in population (% activity)
Description: Young bean plants are populated with a mixed population of Tetranychus urticae and, after 1 day, sprayed with a spray mixture prepared with an aqueous emulsion and comprising 400 ppm of the active ingredient. The plants are subsequently incubated for 6 days at 25° C and then evaluated. The percentage reduction in population (% activity) is determined by comparing the number of dead eggs, larvae and adults on the treated plants with those on the untreated ones.

[4] = tested on: Heliothis virescens caterpillars; assay: Activity against Heliothis virescens caterpillars; settings: 144 h, 400 ppm spray on young soybean plants, first larval stage, evaluated after 6 days, read-out: percentage reduction in population or in feeding damage (% activity)
Description: (§2) Young soybean plants are sprayed with a spray mixture prepared with an aqueous emulsion and comprising 400 ppm of the active ingredient. After the spray coating has dried on, the soybean plants are populated with 10 Heliothis virescens in the first larval stage and placed into a plastic container. The test is evaluated after 6 days. The percentage reduction in population, or the percentage reduction in feeding damage (% activity), is determined by comparing the number of dead caterpillars and the feeding damage on the treated plants with those on the untreated plants.

Heliothis virescens = assay: Ovicidal/larvicidal activity on Heliothis virescens; settings: 192 h, 400 ppm spray on eggs deposited on cotton, evaluated after 8 days, read-out: % reduction in population (hatching percentage of eggs and survival rate of caterpillars)
Description: Heliothis eggs which have been deposited on cotton are sprayed with a spray mixture prepared with an aqueous emulsion and comprising 400 ppm of the active ingredient. After 8 days, the hatching percentage of the eggs and the survival rate of the caterpillars are evaluated by comparing them with untreated control batches (% reduction in population).

Nephotettix cincticeps [5] = assay: Activity against Nephotettix cincticeps (spray on rice plants); settings: 504 h, 400 ppm spray on rice plants, larvae in stages 2 and 3, evaluated 21 days later, read-out: percentage reduction in population (% activity)
Description: Rice plants are treated with a spray mixture prepared with an aqueous emulsion and comprising 400 ppm of the active ingredient. After the spray coating has dried on, the rice plants are populated with leaf hopper larvae in stages 2 and 3. The test is evaluated 21 days later. The percentage reduction in population (% activity) is determined by comparing the number of surviving leaf hoppers on the treated plants with those on the untreated plants.

Nephotettix cincticeps [6] = assay: Systemic activity against Nephotettix cincticeps; settings: 144 h, pots with rice plants in 400 ppm aqueous emulsion solution, larvae in stages 2 and 3, evaluated after 6 days, read-out: percentage reduction in population (% activity)
Description: as §1, with “evaluated after” for “evaluated”, “6 days.” for “6 days later.”, “the number” for “the numbers”, “of leaf” for “of plant”

Dermanyssus gallinae = assay: Activity against Dermanyssus gallinae; settings: 72 h, 10 ppm solution, mites in different development stages, after 3 days
Description: 2 to 3 ml of a solution comprising 10 ppm of active ingredient and approximately 200 mites in different development stages are placed into a glass container which is open at the top. The container is then sealed with a cottonwool ball, shaken for 10 minutes until the mites are wetted completely, and then briefly turned over so that the remaining test solution can be absorbed by the cottonwool. After 3 days, the mortality of the mites is determined by counting the dead individuals; it is given as a percentage.

[7] = tested on: Crocidolomia binotalis caterpillars; assay: Activity against Crocidolomia binotalis caterpillars; settings: Brassica oleracea, 72 h; 400 ppm spray on young cabbage plants, third larval stage, evaluated after 3 days; read-out: percentage reduction in population or in feeding damage (% activity)
Description: as §2, with “cabbage” for “soybean”, “infested” for “populated”, “Crocidolomia binotalis” for “Heliothis virescens”, “third” for “first”, “3” for “6”

adult Anthonomus grandis = assay: Activity against adult Anthonomus grandis; settings: 72 h, 400 ppm spray on young cotton plants, adults, evaluated after 3 days, read-out: percentage reduction in population or in feeding damage (% activity)
Description: as §2, with “cotton” for “soybean”, “adult Anthonomus grandis” for “Heliothis virescens in the first larval stage”, “3” for “6”, “beetles” for “caterpillars”

O=C(CCCC=C(F)F)OCCOc1ccc(OC(=O)c2ccccc2)cc1 [Compound 2.22]
> 80%: activity at 400 ppm (Nilaparvata lugens [1]) | pest or weed control at 100 ppm (Ctenocephalides felis) | activity at 400 ppm (Aphis craccivora) | activity at 400 ppm (Nilaparvata lugens [2]) | activity at 400 ppm [3] | pest or weed control at 400 ppm (Bemisia tabaci) | activity at 400 ppm (Tetranychus urticae) | activity at 400 ppm [4] | pest or weed control at 400 ppm (Heliothis virescens)

O=C(CCCC=C(F)F)OCCOc1ccc(OC(=O)Oc2ccccc2)cc1 [Compound 2.23]
> 80%: activity at 400 ppm (Nilaparvata lugens [1]) | pest or weed control at 100 ppm (Ctenocephalides felis) | activity at 400 ppm (Aphis craccivora) | activity at 400 ppm (Nilaparvata lugens [2]) | activity at 400 ppm [3] | activity at 400 ppm (Nephotettix cincticeps [5]) | pest or weed control at 400 ppm (Bemisia tabaci) | activity at 400 ppm (Tetranychus urticae) | activity at 400 ppm [4] | pest or weed control at 400 ppm (Heliothis virescens)

O=C(CCCCCCCC=C(F)F)OCCOc1ccc(Oc2ccccc2)cc1 [Compound 4.01]
> 80%: activity at 400 ppm [3] | activity at 400 ppm (Nephotettix cincticeps [5]) | pest or weed control at 400 ppm (Bemisia tabaci) | activity at 400 ppm [4] | activity at 400 ppm (Nephotettix cincticeps [6]) | mortality at 10 ppm (Dermanyssus gallinae)

O=C(CCCCCCCC=C(F)F)OCCOc1ccc(Sc2ccccc2)cc1 [Compound 4.02]
> 80%: activity at 400 ppm [3] | activity at 400 ppm (Nephotettix cincticeps [5]) | pest or weed control at 400 ppm (Bemisia tabaci) | activity at 400 ppm [4] | activity at 400 ppm (Nephotettix cincticeps [6]) | mortality at 10 ppm (Dermanyssus gallinae)

CC(COC(=O)CCCCCCCC=C(F)F)Oc1ccc(Oc2ccccc2)cc1 (centres unmarked) [Compound 4.06]
> 80%: activity at 400 ppm [3] | activity at 400 ppm (Nephotettix cincticeps [5]) | pest or weed control at 400 ppm (Bemisia tabaci) | activity at 400 ppm [4] | activity at 400 ppm (Nephotettix cincticeps [6]) | mortality at 10 ppm (Dermanyssus gallinae)

O=C(CCCCCCCCCC=C(F)F)OCCOc1ccc(Oc2ccccc2)cc1 [Compound 5.01]
> 80%: activity at 400 ppm [7] | activity at 400 ppm (adult Anthonomus grandis)

O=C(CCCCCCCCCC=C(F)F)OCCOc1ccc(Sc2ccccc2)cc1 [Compound 5.02]
> 80%: pest or weed control at 400 ppm (Bemisia tabaci) | activity at 400 ppm [7] | activity at 400 ppm (adult Anthonomus grandis)

O=C(CCCCCCCCCC=C(F)F)OCCOc1ccc(OCc2ccccc2)cc1 [Compound 5.05]
> 80%: activity at 400 ppm (Aphis craccivora) | activity at 400 ppm [3] | activity at 400 ppm (Nephotettix cincticeps [5]) | activity at 400 ppm [7] | activity at 400 ppm (adult Anthonomus grandis)

O=C(CCCCCCCCCC=C(F)F)OCCOc1ccc(OCc2cccc(F)c2)cc1 [Compound 5.24]
> 80%: activity at 400 ppm (Nephotettix cincticeps [5]) | activity at 400 ppm [4] | activity at 400 ppm (Nephotettix cincticeps [6])
